Data on 13 molecules can be found in patent publication US11028087B2, “2,6-disubstituted-9-cyclopentyl-9H-purines, use thereof as medicaments, and pharmaceutical compositions” (UNIVERZITA PALACKEHO V OLOMOUCI, priority 2017, dated 2021).

Test [1] has as its system Kasumi-1 (acute myeloid leukemia, KIT mutation Asn822Lys). The test is described as follows: Calcein AM cytotoxicity assay. Conditions: Homo sapiens, 72 h; Kasumi-1; Calcein AM, three days; read-out: EC50 values (μM) Kasumi-1. Type of test: cell-based. Summed up: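 Kasumi-1 cells were grown in RPMI-1640 + 15% FBS, other lines at 37° C., 5% CO2, and seeded the day before compound addition in triplicates at various concentrations. After 3 days, viability was read with Calcein AM (1 μg/ml final, 1 h) as live-cell fluorescence at ex 485/em 538 nm.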

Test [2] concerns the target T1, CDK5/p35 (Homo sapiens, UniProt Q00535).
T1 construct: purchased ProQinase GmbH
The test can be described thus: Kinase inhibition assay with [γ-33P]ATP. Type of test: biochemical. The following applies: histone H1, 0.15 μM ATP. A digest of the protocol: (§1)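 Radiometric [γ-33P]ATP assay in HEPES pH 7.5 with Mg2+/Mn2+: CDK1/Cyclin B (Sf9-expressed) and purchased CDK5/p35 with 1 mg/mL histone H1 at 15 and 0.15 μM ATP respectively; FLT3 WT and FLT3-ITD with AGLT substrate at 1 μM ATP. Reactions stopped with H3PO4, spotted onto phosphocellulose and washed.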

Test [3] has as its target T2, CDK1/Cyclin B (Homo sapiens, UniProt P06493).
T2 construct: made in house; host or cells: Sf9 insect cells, baculoviral infection
The test can be described thus: Kinase inhibition assay with [γ-33P]ATP. Format: biochemical. Conditions: histone H1, 15 μM ATP. A digest of the protocol: as §1

The test system of test [4] is HL60. The test can be described thus: Calcein AM cytotoxicity assay. Type of test: cell-based. Conditions: Homo sapiens, HL-60, 72 h, three days.
In test [5] the test system is H1703 (non-small cell lung carcinoma, PDGFRA amplification). The test can be described thus: Calcein AM cytotoxicity assay. Type of test: cell-based. The following applies: Homo sapiens, NCI-H1703, 72 h, three days. A digest of the protocol:
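Cells seeded one day before compound addition (various concentrations, triplicates) and exposed for three days at 37° C, 5% CO2. Viability then read as esterase-generated green calcein fluorescence after 1 h with Calcein AM at 1 μg/ml final; signal reflects number of viable cells.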

The structures appear in SMILES notation.

T1 sequence (Q00535 whole entry): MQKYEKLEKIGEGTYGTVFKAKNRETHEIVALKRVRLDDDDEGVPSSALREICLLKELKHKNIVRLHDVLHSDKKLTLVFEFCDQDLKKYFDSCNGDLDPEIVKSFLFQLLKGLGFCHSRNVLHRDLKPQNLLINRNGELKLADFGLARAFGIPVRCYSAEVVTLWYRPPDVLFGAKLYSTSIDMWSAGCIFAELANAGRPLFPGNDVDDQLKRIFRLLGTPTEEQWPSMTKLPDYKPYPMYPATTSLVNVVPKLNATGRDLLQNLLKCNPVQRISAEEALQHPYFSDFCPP
T1 sequence (Q15078 whole entry partner): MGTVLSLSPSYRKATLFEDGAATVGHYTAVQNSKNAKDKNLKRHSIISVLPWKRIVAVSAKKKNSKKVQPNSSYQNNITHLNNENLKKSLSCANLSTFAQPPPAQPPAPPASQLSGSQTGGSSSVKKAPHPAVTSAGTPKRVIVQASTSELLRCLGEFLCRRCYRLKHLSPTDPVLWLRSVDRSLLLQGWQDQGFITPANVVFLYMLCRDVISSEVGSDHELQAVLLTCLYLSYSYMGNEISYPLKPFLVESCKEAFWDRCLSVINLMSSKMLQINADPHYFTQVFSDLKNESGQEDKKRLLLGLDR
T2 sequence (P06493 whole entry, species assumed): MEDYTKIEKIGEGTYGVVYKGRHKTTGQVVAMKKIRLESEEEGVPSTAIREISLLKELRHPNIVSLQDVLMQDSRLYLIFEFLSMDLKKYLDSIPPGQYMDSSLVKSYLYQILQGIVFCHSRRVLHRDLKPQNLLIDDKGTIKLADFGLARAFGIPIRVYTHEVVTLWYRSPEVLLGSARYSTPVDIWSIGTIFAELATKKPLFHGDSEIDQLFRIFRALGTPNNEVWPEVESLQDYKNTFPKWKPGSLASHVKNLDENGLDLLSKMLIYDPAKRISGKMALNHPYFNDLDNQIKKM
T2 sequence (P14635 whole entry partner, species assumed): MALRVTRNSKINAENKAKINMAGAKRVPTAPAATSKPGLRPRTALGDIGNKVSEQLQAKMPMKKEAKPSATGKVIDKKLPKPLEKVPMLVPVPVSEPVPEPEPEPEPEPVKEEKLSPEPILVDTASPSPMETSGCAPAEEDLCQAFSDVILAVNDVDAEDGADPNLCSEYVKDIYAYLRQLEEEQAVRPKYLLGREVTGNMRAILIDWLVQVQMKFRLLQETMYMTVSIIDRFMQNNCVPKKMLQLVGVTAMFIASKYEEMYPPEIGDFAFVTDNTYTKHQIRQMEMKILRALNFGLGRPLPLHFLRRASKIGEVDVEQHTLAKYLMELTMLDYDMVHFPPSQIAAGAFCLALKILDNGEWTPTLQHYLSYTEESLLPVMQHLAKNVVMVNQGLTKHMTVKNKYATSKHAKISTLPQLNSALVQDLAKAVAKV

A word on the EC50: it is the midpoint of the concentration-response curve. As usually defined, the IC50 is the point on the concentration scale where inhibition reaches its midpoint. For the molecule `NCCNc1nc(Nc2ccc(CN3CCNCC3)cc2)c2ncn(C3CCCC3)c2n1` [Compound 14], the EC50 in test [1] was 0.781 µM; in test [4], 2.68 µM. In addition, the half-inhibitory concentration (IC50) in test [2] amounted to 0.065 µM; in test [3], 0.037 µM.
Regarding `CN(C)CCNc1nc(Nc2ccc(CN3CCOCC3)nc2)c2ncn(C3CCCC3)c2n1` [Compound 172], the EC50 was 1.5 µM in test [1] and 0.35 µM in test [5].
Turning to `CN1CCN(C(=O)c2ccc(Nc3nc(NC4CCC(N)CC4)nc4c3ncn4C3CCCC3)cc2)CC1` (stereo not drawn) [Compound 3], the EC50 in test [1] is 1.23 µM; in test [4] it was 1.29 µM. In addition, the results for the IC50 in test [2] and in test [3] were 0.058 µM and 0.034 µM, respectively.
As to `NCCCCNc1nc(Nc2ccc(N3CC4(COC4)C3)nc2)c2ncn(C3CCCC3)c2n1` [Compound 28], the EC50 in test [1] is 0.839 µM; in test [5], 0.214 µM.
For `CN1CCN(C(=O)c2ccc(Nc3nc(NCCCCN)nc4c3ncn4C3CCCC3)cc2)CC1` [Compound 27], the EC50 in test [1] was 0.637 µM; in test [4], 0.989 µM.
Regarding `NCCCCNc1nc(Nc2ccc(N3CCOCC3)cc2)c2ncn(C3CCCC3)c2n1` [Compound 265], the EC50 in test [5] was 0.482 µM.
Turning to `NC1CCC(Nc2nc(Nc3ccc(N4CC5(COC5)C4)cc3)c3ncn(C4CCCC4)c3n2)CC1` (stereo not drawn) [Compound 272], the EC50 in test [1] was 0.773 µM; in test [5], 0.412 µM. The IC50 in test [2] is 0.059 µM; in test [3] it was 0.094 µM.
Turning to `CCN1CCN(c2ccc(Nc3nc(NCCCCN)nc4c3ncn4C3CCCC3)cc2)CC1` [Compound 266], the half-maximal effective concentration (EC50) in test [5] was 0.978 µM.
As to `NC1CCC(Nc2nc(Nc3ccc(N4CCCC4)cc3)c3ncn(C4CCCC4)c3n2)CC1` (stereo not drawn) [Compound 263], the concentration giving a half-maximal response (EC50) in test [1] was 0.569 µM; in test [4], 3.93 µM. Also, the half-inhibitory concentration (IC50) in test [2] was 0.359 µM; in test [3], 0.082 µM.
For `NC1CCC(Nc2nc(Nc3ccc(CN4CCNCC4)cc3)c3ncn(C4CCCC4)c3n2)CC1` (stereo not drawn) [Compound 2], in that order: 0.481 µM, 3.51 µM, 0.065 µM and 0.045 µM.
For the molecule `NC1CCC(Nc2nc(Nc3ccc(CN4CCOCC4)cc3)c3ncn(C4CCCC4)c3n2)CC1` (stereo not drawn) [Compound 264], in test [2], the IC50 was 0.034 µM.
In the case of `NC1CCC(Nc2nc(Nc3ccc(N4CCOCC4)cc3)c3ncn(C4CCCC4)c3n2)CC1` (stereo not drawn) [Compound 1], the EC50 in test [1] was 0.944 µM; in test [5], 0.189 µM.
With `CN1CC2(C1)CN(c1ccc(Nc3nc(NC4CCC(O)CC4)nc4c3ncn4C3CCCC3)cc1)C2` (stereo not drawn) [Compound 7], the half-inhibitory concentration (IC50) stood at 0.03 µM in test [2] and 0.013 µM in test [3].
